Measurements as given in patent publication US20240174618A1, “SUBSTITUTED (2-HETEROARYLOXYPHENYL)SULFONATES, SALTS THEREOF AND THEIR USE AS HERBICIDAL AGENTS” (Bayer Aktiengesellschaft, priority 2021, published 2024).

How the values were obtained:
Type in all cases: in vivo
[1] = system: Abutilon theophrasti (ABUTH); test: A. Herbicidal pre-emergence efficacy, ABUTH; conditions: scored visually after about 3 weeks vs untreated controls
Excerpt: (§1) Seeds of mono- and dicotyledonous weed plants were placed in plastic pots in sandy loam soil (doubly sown with one species each of mono- or dicotyledonous weed plants per pot) and covered with soil. The compounds of the invention, formulated in the form of wettable powders (WP) or as emulsion concentrates (EC), were then applied onto the surface of the covering soil as aqueous suspension or emulsion with addition of 0.5% additive at a water application rate of 600 liters per hectare (converted). After the treatment, the pots were placed in a greenhouse and kept under good growth conditions for the test plants. After about 3 weeks, the efficacy of the preparations was scored visually in comparison with untreated controls as percentages.
(§2) For example, • 100% efficacy=plants have died, • 0% efficacy=like untreated control plants.
(§3) Tables A1a to A12c below show the effects of selected compounds of the general formula (I) according to table 1 on various harmful plants at an application rate corresponding to 1280 g/ha or less, which were obtained by the experimental procedure mentioned above.

[2] = system: Echinochloa crus-galli (ECHCG); test: A. Herbicidal pre-emergence efficacy, ECHCG; conditions: scored visually after about 3 weeks vs untreated controls
Excerpt: as §1, §2, §3

[3] = system: Kochia scoparia (KCHSC); test: A. Herbicidal pre-emergence efficacy, KCHSC; conditions: pre-emergence
Excerpt: as §1, §2, §3

[4] = system: Matricaria inodora (MATIN); test: A. Herbicidal pre-emergence efficacy, MATIN
Excerpt: as §1, §2, §3

[5] = system: Poa annua (POAAN); test: A. Herbicidal pre-emergence efficacy, POAAN; conditions: dosage 1280 g/ha
Excerpt: as §1, §2, §3

[6] = system: Setaria viridis (SETVI); test: A. Herbicidal pre-emergence efficacy, SETVI
Excerpt: as §1, §2, §3

[7] = system: Veronica persica (VERPE); test: A. Herbicidal pre-emergence efficacy, VERPE
Excerpt: as §1, §2, §3

[8] = system: Amaranthus retroflexus (AMARE); test: A. Herbicidal pre-emergence efficacy, AMARE
Excerpt: as §1, §2, §3

[9] = system: Kochia scoparia (KCHSC); test: B. Herbicidal post-emergence efficacy, KCHSC; conditions: for Post-emergence efficacy against KCHSC in %: rated visually after about 3 weeks; for Post-emergence efficacy against KCHSC: 1280 g/ha
Procedure: (§4) Seeds of mono- and dicotyledonous weed plants were placed in plastic pots in sandy loam soil (doubly sown with in each case one species of mono- or dicotyledonous weed plants per pot), covered with soil and cultivated in a greenhouse under controlled growth conditions. 2 to 3 weeks after sowing, the test plants were treated at the one-leaf stage. The compounds of the invention, formulated in the form of wettable powders (WP) or as emulsion concentrates (EC), were applied onto the green parts of the plants as aqueous suspension or emulsion with addition of 0.5% additive at a water application rate of 600 liters per hectare (converted). After the test plants had been kept in the greenhouse under optimum growth conditions for about 3 weeks, the activity of the preparations was rated visually in comparison to untreated controls.
(§5) For example, • 100% efficacy=plants have died, • 0% efficacy=like untreated control plants
(§6) Tables B1a to B12c below show the effects of selected inventive compounds of the general formula (I) according to table 1 on various harmful plants at an application rate corresponding to 1280 g/ha or less, which were obtained by the experimental procedure mentioned above.

[10] = system: Veronica persica (VERPE); test: B. Herbicidal post-emergence efficacy, VERPE
Procedure: as §4, §5, §6

[11] = system: Amaranthus retroflexus (AMARE); test: B. Herbicidal post-emergence efficacy, AMARE
Procedure: as §4, §5, §6

[12] = system: Lolium rigidum (LOLRI); test: A. Herbicidal pre-emergence efficacy, LOLRI; conditions: dosage 1280 g/ha
Excerpt: as §1, §2, §3

[13] = system: Stellaria media (STEME); test: A. Herbicidal pre-emergence efficacy, STEME
Excerpt: as §1, §2, §3

[14] = system: Abutilon theophrasti (ABUTH); test: B. Herbicidal post-emergence efficacy, ABUTH; conditions: rated visually after about 3 weeks
Procedure: as §4, §5, §6

[15] = system: Echinochloa crus-galli (ECHCG); test: B. Herbicidal post-emergence efficacy, ECHCG; conditions: 1280 g/ha, rated visually after about 3 weeks
Procedure: as §4, §5, §6

[16] = system: Poa annua (POAAN); test: B. Herbicidal post-emergence efficacy, POAAN; conditions: 1280 g/ha
Procedure: as §4, §5, §6

[17] = system: Stellaria media (STEME); test: B. Herbicidal post-emergence efficacy, STEME
Procedure: as §4, §5, §6

[18] = system: Digitaria sanguinalis (DIGSA); test: A. Herbicidal pre-emergence efficacy, DIGSA; conditions: scored visually after about 3 weeks vs untreated controls
Excerpt: as §1, §2, §3

[19] = pre-emergence, dosage 1280 g/ha

SMILES	Pre-emergence efficacy against ABUTH ([1]; 1280 g/ha) [%]	Pre-emergence efficacy against ECHCG ([2]; 1280 g/ha) [%]	Pre-emergence efficacy against KCHSC ([3]; dosage 320 g/ha) [%]	Pre-emergence efficacy against KCHSC ([3]; dosage 1280 g/ha) [%]	Pre-emergence efficacy against MATIN [4, 19] [%]	Pre-emergence efficacy against POAAN [5] [%]	Pre-emergence efficacy against SETVI ([6]; dosage 320 g/ha) [%]	Pre-emergence efficacy against SETVI ([6]; dosage 1280 g/ha) [%]	Pre-emergence efficacy against VERPE in % ([7]; 320 g/ha) [%]	Pre-emergence efficacy against VERPE in % ([7]; 1280 g/ha) [%]	Pre-emergence efficacy against AMARE in % ([8]; 80 g/ha) [%]	Pre-emergence efficacy against AMARE in % ([8]; 320 g/ha) [%]	Pre-emergence efficacy against AMARE in % ([8]; 1280 g/ha) [%]	Post-emergence efficacy against KCHSC in % ([9]; 320 g/ha) [%]	Post-emergence efficacy against KCHSC [9] [%]	Post-emergence efficacy against VERPE ([10]; 320 g/ha) [%]	Post-emergence efficacy against VERPE ([10]; 1280 g/ha) [%]	Post-emergence efficacy against AMARE ([11]; 320 g/ha) [%]	Post-emergence efficacy against AMARE ([11]; 1280 g/ha) [%]	Pre-emergence efficacy against ABUTH ([1]; 320 g/ha) [%]	other results
CS(=O)(=O)Oc1ccccc1Oc1ncc(Cl)cn1 [Example I-1]	100	100	100	100	100	90	90	100	100	100	100	100	100	100	100	90	100	100	100		Pre-emergence efficacy against MATIN ([4]; 320 g/ha, scored visually after about 3 weeks vs untreated controls): 90%; Post-emergence efficacy against KCHSC in % ([9]; 80 g/ha): 90%; Post-emergence efficacy against AMARE ([11]; 80 g/ha): 100%
CC(C)S(=O)(=O)Oc1ccccc1Oc1ncc(Cl)cn1 [Example I-18]	100	100			90	90		90	90	100		100	100	100	100	90	90	100	100	90	Pre-emergence efficacy against ECHCG ([2]; 320 g/ha): 90%; Pre-emergence efficacy against LOLRI [12]: 90%; Pre-emergence efficacy against STEME ([13]; dosage 1280 g/ha): 90%; Post-emergence efficacy against ABUTH in % ([14]; 1280 g/ha): 90%; Post-emergence efficacy against ECHCG in % [15]: 90%; Post-emergence efficacy against POAAN [16]: 90%; Post-emergence efficacy against STEME ([17]; 1280 g/ha): 90%
O=S(=O)(Oc1ccccc1Oc1ncc(Cl)cn1)C1CCCC1 [Example I-19]	100	90	90	90		90	90	100			90	100	100	90	100	90	100	90	100	90	Pre-emergence efficacy against DIGSA ([18]; 80 g/ha): 100%; Pre-emergence efficacy against DIGSA ([18]; 320 g/ha): 100%; Pre-emergence efficacy against DIGSA ([18]; 1280 g/ha): 100%; Pre-emergence efficacy against STEME ([13]; dosage 320 g/ha): 100%; Pre-emergence efficacy against STEME ([13]; dosage 1280 g/ha): 100%; Post-emergence efficacy against ABUTH in % ([14]; 320 g/ha): 90%; Post-emergence efficacy against ABUTH in % ([14]; 1280 g/ha): 90%; Post-emergence efficacy against ECHCG in % [15]: 90%; Post-emergence efficacy against POAAN [16]: 90%; Post-emergence efficacy against STEME ([17]; 80 g/ha): 90%; Post-emergence efficacy against STEME ([17]; 320 g/ha): 100%; Post-emergence efficacy against STEME ([17]; 1280 g/ha): 100%; Post-emergence efficacy against VERPE ([10]; 80 g/ha): 90%
